Here are results for 19 molecules from US10766893B2 (priority 2017, dated 2020).

Experiment in all cases: biochemical
Type in all cases: biochemical
Holding throughout (conditions): 15 nM tritium labelled cAMP, 1 hr at room temperature

One test deals with PDE1A (Homo sapiens (Human), UniProt P54750). An excerpt:
(§1) Table 1 lists the IC50 value for inhibition of PDE1 by the compounds of the invention. […] PDE1 assays are described in the Experimental Section.

A further test deals with PDE1C (Homo sapiens (Human), UniProt Q14123).
Sequence of PDE1C (Q14123 whole entry): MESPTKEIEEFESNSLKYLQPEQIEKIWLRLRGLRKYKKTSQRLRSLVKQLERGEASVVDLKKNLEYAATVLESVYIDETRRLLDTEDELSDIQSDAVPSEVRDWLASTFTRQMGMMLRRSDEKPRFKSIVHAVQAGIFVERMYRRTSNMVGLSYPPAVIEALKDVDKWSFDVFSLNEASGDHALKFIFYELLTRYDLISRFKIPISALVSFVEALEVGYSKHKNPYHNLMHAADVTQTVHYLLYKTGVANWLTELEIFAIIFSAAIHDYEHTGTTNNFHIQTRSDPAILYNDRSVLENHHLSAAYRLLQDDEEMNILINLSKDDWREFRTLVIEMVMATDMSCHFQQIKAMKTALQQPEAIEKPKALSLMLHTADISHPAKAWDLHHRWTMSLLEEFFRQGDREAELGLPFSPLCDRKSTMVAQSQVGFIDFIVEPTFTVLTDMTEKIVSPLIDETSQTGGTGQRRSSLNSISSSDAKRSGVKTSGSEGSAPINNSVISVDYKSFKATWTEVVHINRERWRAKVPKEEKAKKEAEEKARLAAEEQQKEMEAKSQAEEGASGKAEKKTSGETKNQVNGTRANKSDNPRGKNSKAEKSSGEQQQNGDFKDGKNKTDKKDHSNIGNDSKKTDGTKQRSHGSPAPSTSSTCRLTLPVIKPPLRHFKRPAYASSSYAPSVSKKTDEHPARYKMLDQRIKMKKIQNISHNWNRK
From the text: as §1

In a further test the target is PDE1B (Homo sapiens (Human), UniProt Q01064).
Sequence of PDE1B (Q01064 whole entry): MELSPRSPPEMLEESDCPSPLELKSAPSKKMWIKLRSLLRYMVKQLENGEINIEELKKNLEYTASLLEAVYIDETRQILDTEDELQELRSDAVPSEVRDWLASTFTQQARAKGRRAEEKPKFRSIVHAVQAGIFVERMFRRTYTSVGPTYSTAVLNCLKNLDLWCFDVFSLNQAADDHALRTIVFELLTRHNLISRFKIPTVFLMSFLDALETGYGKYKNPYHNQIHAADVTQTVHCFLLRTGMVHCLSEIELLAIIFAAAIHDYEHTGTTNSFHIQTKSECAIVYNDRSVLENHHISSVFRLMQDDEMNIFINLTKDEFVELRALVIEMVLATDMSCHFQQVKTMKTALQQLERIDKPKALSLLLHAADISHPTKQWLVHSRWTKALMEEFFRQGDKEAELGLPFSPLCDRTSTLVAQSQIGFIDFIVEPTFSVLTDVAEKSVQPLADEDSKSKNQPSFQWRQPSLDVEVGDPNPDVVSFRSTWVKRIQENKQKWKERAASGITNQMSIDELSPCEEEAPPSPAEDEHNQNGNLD
From the text: as §1

Each structure is given as a SMILES string.

Sequence of PDE1A (P54750 whole entry): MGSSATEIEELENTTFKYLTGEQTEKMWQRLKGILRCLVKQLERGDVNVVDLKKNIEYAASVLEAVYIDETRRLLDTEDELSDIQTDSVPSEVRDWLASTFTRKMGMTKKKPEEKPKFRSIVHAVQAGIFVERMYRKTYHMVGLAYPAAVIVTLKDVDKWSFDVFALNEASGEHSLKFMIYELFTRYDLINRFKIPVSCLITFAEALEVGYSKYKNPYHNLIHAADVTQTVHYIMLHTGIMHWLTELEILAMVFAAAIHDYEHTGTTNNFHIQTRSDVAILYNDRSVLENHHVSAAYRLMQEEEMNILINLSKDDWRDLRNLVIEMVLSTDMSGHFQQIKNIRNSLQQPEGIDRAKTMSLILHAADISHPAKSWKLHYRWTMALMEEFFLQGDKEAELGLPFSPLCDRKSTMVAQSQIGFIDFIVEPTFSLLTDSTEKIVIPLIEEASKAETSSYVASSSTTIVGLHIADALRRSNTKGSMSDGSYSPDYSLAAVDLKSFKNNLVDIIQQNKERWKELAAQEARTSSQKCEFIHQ

As for `CCOc1ncccc1-c1cc(NCc2cccc3oc(C)nc23)c2c(n1)c(C)nn2C(C)C` [Example 11a, 5-(2-ethoxy-3-pyridyl)-1-isopropyl-3-methyl-N-[(2-methyl-1,3-benzoxazol-4-yl)methyl]pyrazolo[4,3-b]pyridin-7-amine], the IC50 at PDE1A was determined as 18 nM; against PDE1C, 26 nM; against PDE1B, 4 nM.
For the molecule `CCOc1nnccc1-c1cc(NCc2nccc(C)n2)c2c(n1)c(C)nn2C(C)C` [Example 11b, 5-(3-ethoxypyridazin-4-yl)-1-isopropyl-3-methyl-N-[(4-methylpyrimidin-2-yl)methyl]pyrazolo[4,3-b]pyridin-7-amine], the half-inhibitory concentration (IC50) came to 38 nM at PDE1A, 160 nM at PDE1C and 4.4 nM on PDE1B.
For `CCOc1ncccc1-c1cc(NCc2ccc3oc(C)nc3c2)c2c(n1)c(C)nn2C(C)C` [Example 12a, 5-(2-ethoxy-3-pyridyl)-1-isopropyl-3-methyl-N-[(2-methyl-1,3-benzoxazol-5-yl)methyl]pyrazolo[4,3-b]pyridin-7-amine], the IC50 against PDE1A is 8.7 nM; against PDE1C it was 31 nM; on PDE1B, 0.81 nM.
For `CCOc1cnccc1-c1cc(NCc2cccc(F)n2)c2c(n1)c(C)nn2C(C)C` [Example 12b, 5-(3-ethoxy-4-pyridyl)-N-[(6-fluoro-2-pyridyl)methyl]-1-isopropyl-3-methyl-pyrazolo[4,3-b]pyridin-7-amine] the same measures were 22 nM, 61 nM and 1.1 nM.
Taken in the same sequence, the figures for `CCOc1nnccc1-c1cc(NCc2cccc3ocnc23)c2c(n1)c(C)nn2C(C)C` [Example 13a, N-(1,3-benzoxazol-4-ylmethyl)-5-(3-ethoxypyridazin-4-yl)-1-isopropyl-3-methyl-pyrazolo[4,3-b]pyridin-7-amine] were 39 nM, 93 nM and 1.7 nM.
Taken in the same sequence, the figures for `CCOc1cnccc1-c1cc(NCc2cc[nH]n2)c2c(n1)c(C)nn2C(C)C` [Example 13b, 5-(3-ethoxy-4-pyridyl)-1-isopropyl-3-methyl-N-(1H-pyrazol-3-ylmethyl)pyrazolo[4,3-b]pyridin-7-amine] were 24 nM, 56 nM and 2.5 nM.
For the molecule `CCOc1ncccc1-c1cc(NCc2nccc3nncn23)c2c(n1)c(C)nn2C(C)C` [Example 15a, N-([1,2,4]triazolo[4,3-c]pyrimidin-5-ylmethyl)-5-(2-ethoxypyridin-3-yl)-1-isopropyl-3-methyl-1H-pyrazolo[4,3-b]pyridin-7-amine], the IC50 against PDE1A turned out to be 30 nM; at PDE1C it was 43 nM; on PDE1B, 4.8 nM.
For `CCOc1cnccc1-c1cc(NCc2ccccn2)c2c(n1)c(C)nn2C(C)C` [Example 15b, 5-(3-ethoxy-4-pyridyl)-1-isopropyl-3-methyl-N-(2-pyridylmethyl)pyrazolo[4,3-b]pyridin-7-amine] the same measures were 17 nM, 55 nM and 1.4 nM.
Taken in the same sequence, the figures for `CCOc1ncccc1-c1cc(NCc2nccc3nccn23)c2c(n1)c(C)nn2C(C)C` [Example 16a, 5-(2-ethoxypyridin-3-yl)-N-(imidazo[1,2-c]pyrimidin-5-ylmethyl)-1-isopropyl-3-methyl-1H-pyrazolo[4,3-b]pyridin-7-amine] were 35 nM, 44 nM and 4 nM.
Turning to `CCOc1nnccc1-c1cc(NCc2cccnc2F)c2c(n1)c(C)nn2C(C)C` [Example 16b, 5-(3-ethoxypyridazin-4-yl)-N-[(2-fluoro-3-pyridyl)methyl]-1-isopropyl-3-methyl-pyrazolo[4,3-b]pyridin-7-amine], the 50% inhibitory concentration (IC50) came to 18 nM on PDE1A, 50 nM against PDE1C and 3.4 nM against PDE1B.
For `CCOc1cnccc1-c1cc(NCc2cccnc2F)c2c(n1)c(C)nn2C(C)C` [Example 17b, 5-(3-ethoxy-4-pyridyl)-N-[(2-fluoro-3-pyridyl)methyl]-1-isopropyl-3-methyl-pyrazolo[4,3-b]pyridin-7-amine] the same measures were 20 nM, 37 nM and 2.4 nM.
For `CCOc1nnccc1-c1cc(NCc2ncn(C)n2)c2c(n1)c(C)nn2C(C)C` [Example 18b, 5-(3-ethoxypyridazin-4-yl)-1-isopropyl-3-methyl-N-[(1-methyl-1,2,4-triazol-3-yl)methyl]pyrazolo[4,3-b]pyridin-7-amine] the same measures were 3.6 nM, 17 nM and 0.59 nM.
Taken in the same sequence, the figures for `CCOc1cnccc1-c1cc(NCc2ncn(C)n2)c2c(n1)c(C)nn2C(C)C` [Example 19b, 5-(3-ethoxy-4-pyridyl)-1-isopropyl-3-methyl-N-[(1-methyl-1,2,4-triazol-3-yl)methyl]pyrazolo[4,3-b]pyridin-7-amine] were 11 nM, 22 nM and 0.91 nM.
As to `CCOc1nnccc1-c1cc(NCc2cnc(C)s2)c2c(n1)c(C)nn2C(C)C` [Example 20b, 5-(3-ethoxypyridazin-4-yl)-1-isopropyl-3-methyl-N-[(2-methylthiazol-5-yl)methyl]pyrazolo[4,3-b]pyridin-7-amine], the half-inhibitory concentration (IC50) at PDE1A was 5.7 nM; at PDE1C, 24 nM; at PDE1B, 1.1 nM.
Taken in the same sequence, the figures for `CCOc1cnccc1-c1cc(NCc2cnc(C)s2)c2c(n1)c(C)nn2C(C)C` [Example 21b, 5-(3-ethoxy-4-pyridyl)-1-isopropyl-3-methyl-N-[(2-methylthiazol-5-yl)methyl]pyrazolo[4,3-b]pyridin-7-amine] were 5.6 nM, 14 nM and 0.64 nM.
Taken in the same sequence, the figures for `CCOc1cnccc1-c1cc(NCc2cc(C)[nH]n2)c2c(n1)c(C)nn2C(C)C` [Example 23b, 5-(3-ethoxy-4-pyridyl)-1-isopropyl-3-methyl-N-[(5-methyl-1H-pyrazol-3-yl)methyl]pyrazolo[4,3-b]pyridin-7-amine] were 5.5 nM, 12 nM and 0.55 nM.
Taken in the same sequence, the figures for `CCOc1cnccc1-c1cc(NCc2cccc(OC)n2)c2c(n1)c(C)nn2C(C)C` [Example 25b, 5-(3-ethoxy-4-pyridyl)-1-isopropyl-N-[(6-methoxy-2-pyridyl)methyl]-3-methyl-pyrazolo[4,3-b]pyridin-7-amine] were 17 nM, 53 nM and 1.6 nM.
Consider `CCOc1cnccc1-c1cc(NCc2ccn(C)n2)c2c(n1)c(C)nn2C(C)C` [Example 27b, 5-(3-ethoxy-4-pyridyl)-1-isopropyl-3-methyl-N-[(1-methylpyrazol-3-yl)methyl]pyrazolo[4,3-b]pyridin-7-amine], for which the IC50 was 17 nM against PDE1A, 42 nM at PDE1C and 1.6 nM against PDE1B.
As to `COc1cnccc1-c1cc(NCc2cnn(C)c2)c2c(n1)c(C)nn2C(C)C` [Example 29b, 1-isopropyl-5-(3-methoxy-4-pyridyl)-3-methyl-N-[(1-methylpyrazol-4-yl)methyl]pyrazolo[4,3-b]pyridin-7-amine], the IC50 against PDE1A came out at 32 nM; against PDE1C, 44 nM; against PDE1B it was 4.9 nM.

As a reminder, the IC50 is the concentration that gives 50% inhibition. A higher IC50 goes with a need for much substance.
